Results from the supplement of paper PMC12137928.
Where a name gives a salt, the structure may show the parent alone.

Test system: HCT116
Conditions: 72 h
How it was run: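 Luminescence was read with CellTiter-Glo in HCT116 cells seeded at 250 per well in 1536-well plates. Signals were scaled between vehicle at 0% and positive control at -100%, then pattern-corrected. IC50 and maximal efficacy were obtained by fitting a four-parameter Hill equation.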

Structure (SMILES): CN(C/C=C/C#CC(C)(C)C)Cc1cccc2ccccc12 [Terbinafine]
- IC50 cell viability (ICRF193 0 nM): > 45.8 µM
- IC50 cell viability (ICRF193 200 nM): > 45.8 µM

Structure (SMILES): CC(C)(C)NCC(O)c1cc(O)cc(O)c1 (stereo not given) [Terbutaline hemisulfate]
- IC50 cell viability (ICRF193 0 nM): > 45.8 µM
- IC50 cell viability (ICRF193 200 nM): > 45.8 µM

Structure (SMILES): CC(C)N1CCN(c2ccc(OCC3COC(Cn4cncn4)(c4ccc(Cl)cc4Cl)O3)cc2)CC1 (stereo not given) [Terconazole]
- IC50 cell viability (ICRF193 0 nM): > 45.8 µM
- IC50 cell viability (ICRF193 200 nM): > 45.8 µM

Structure (SMILES): CC(C)(C)c1ccc(C(O)CCCN2CCC(C(O)(c3ccccc3)c3ccccc3)CC2)cc1 (stereo not given) [Terfenadine]
- IC50 cell viability (ICRF193 0 nM): > 45.8 µM
- IC50 cell viability (ICRF193 200 nM): > 45.8 µM

Structure (SMILES): CCN(CC)C(=O)N[C@H]1C[C@@H]2c3cccc4[nH]cc(c34)C[C@H]2N(C)C1 [Terguride]
- IC50 cell viability (ICRF193 0 nM): > 45.8 µM
- IC50 cell viability (ICRF193 200 nM): > 45.8 µM

Structure (SMILES): NCCCC[C@H](NC(=O)[C@@H]1CCCN1C(=O)[C@@H]1CSSC[C@H](NC(=O)CNC(=O)CNC(=O)CN)C(=O)N[C@@H](Cc2ccc(O)cc2)C(=O)N[C@@H](Cc2ccccc2)C(=O)N[C@@H](CCC(N)=O)C(=O)N[C@@H](CC(N)=O)C(=O)N1)C(=O)NCC(N)=O [Terlipressin]
- IC50 cell viability (ICRF193 0 nM): > 45.8 µM
- IC50 cell viability (ICRF193 200 nM): > 45.8 µM

Structure (SMILES): CC(CC(c1ccccc1)c1ccccc1)NC(C)(C)C (stereo not given) [Terodiline hydrochloride]
- IC50 cell viability (ICRF193 0 nM): > 45.8 µM
- IC50 cell viability (ICRF193 200 nM): > 45.8 µM

Structure (SMILES): CC1=CCC(O)(C(C)C)CC1 (stereo not given) [Terpineol]
- IC50 cell viability (ICRF193 0 nM): > 45.8 µM
- IC50 cell viability (ICRF193 200 nM): > 45.8 µM

Structure (SMILES): CCO[C@@H](Cc1ccc(OCCc2ccc(OS(C)(=O)=O)cc2)cc1)C(=O)O [Tesaglitazar]
- IC50 cell viability (ICRF193 0 nM): > 45.8 µM
- IC50 cell viability (ICRF193 200 nM): > 45.8 µM

Structure (SMILES): C[C@]12CC[C@H]3[C@@H](CCC4=CC(=O)CC[C@@]43C)[C@@H]1CC[C@@H]2OC(=O)CCc1ccccc1 [Testosterone 17-phenylpropionate]
- IC50 cell viability (ICRF193 0 nM): > 45.8 µM
- IC50 cell viability (ICRF193 200 nM): > 45.8 µM

Structure (SMILES): CCCCCCCCCCC(=O)O[C@H]1CC[C@H]2[C@@H]3CCC4=CC(=O)CC[C@]4(C)[C@H]3CC[C@]12C [Testosterone (undecanoate)]
- IC50 cell viability (ICRF193 0 nM): > 45.8 µM
- IC50 cell viability (ICRF193 200 nM): > 45.8 µM

Structure (SMILES): CCCCCCCCCC(=O)O[C@H]1CC[C@H]2[C@@H]3CCC4=CC(=O)CC[C@]4(C)[C@H]3CC[C@]12C [Testosterone decanoate]
- IC50 cell viability (ICRF193 0 nM): > 45.8 µM
- IC50 cell viability (ICRF193 200 nM): > 45.8 µM

Structure (SMILES): CC(C)CCC(=O)O[C@H]1CC[C@H]2[C@@H]3CCC4=CC(=O)CC[C@]4(C)[C@H]3CC[C@]12C [Testosterone isocaproate]
- IC50 cell viability (ICRF193 0 nM): > 45.8 µM
- IC50 cell viability (ICRF193 200 nM): > 45.8 µM

Structure (SMILES): CCC(=O)O[C@H]1CC[C@H]2[C@@H]3CCC4=CC(=O)CC[C@]4(C)[C@H]3CC[C@]12C [Testosterone propionate]
- IC50 cell viability (ICRF193 0 nM): > 45.8 µM
- IC50 cell viability (ICRF193 200 nM): > 45.8 µM

Structure (SMILES): COc1cc2c(cc1OC)C1CC(=O)C(CC(C)C)CN1CC2 (stereo not given) [Tetrabenazine Mesylate]
- IC50 cell viability (ICRF193 0 nM): > 45.8 µM
- IC50 cell viability (ICRF193 200 nM): > 45.8 µM

Structure (SMILES): COc1cc2c(cc1OC)C1CC(=O)C(CC(C)C)CN1CC2 (stereo not given) [Tetrabenazine]
- IC50 cell viability (ICRF193 0 nM): > 45.8 µM
- IC50 cell viability (ICRF193 200 nM): > 45.8 µM

Structure (SMILES): CCCCNc1ccc(C(=O)OCCN(C)C)cc1 [Tetracaine hydrochloride]
- IC50 cell viability (ICRF193 0 nM): > 45.8 µM
- IC50 cell viability (ICRF193 200 nM): > 45.8 µM

Structure (SMILES): CN(C)[C@@H]1C(O)=C(C(N)=O)C(=O)[C@@]2(O)C(O)=C3C(=O)c4c(O)cccc4[C@@](C)(O)[C@H]3C[C@@H]12 [Tetracycline hydrochloride]
- IC50 cell viability (ICRF193 0 nM): > 45.8 µM
- IC50 cell viability (ICRF193 200 nM): > 45.8 µM

Structure (SMILES): NCCNCCNCCNCCN [Tetraethylenepentamine]
- IC50 cell viability (ICRF193 0 nM): > 45.8 µM
- IC50 cell viability (ICRF193 200 nM): > 45.8 µM

Structure (SMILES): c1ccc2c(c1)CCCC2C1=NCCN1 (stereo not given) [Tetrahydrozoline HCl]
- IC50 cell viability (ICRF193 0 nM): > 45.8 µM
- IC50 cell viability (ICRF193 200 nM): > 45.8 µM

Structure (SMILES): O=C1CCC(N2C(=O)c3ccccc3C2=O)C(=O)N1 (stereo not given) [Thalidomide]
- IC50 cell viability (ICRF193 0 nM): > 45.8 µM
- IC50 cell viability (ICRF193 200 nM): > 45.8 µM

Structure (SMILES): CC1(C)[C@@H]2CC[C@@]1(C)[C@H](OC(=O)CSC#N)C2 [Thanite]
- IC50 cell viability (ICRF193 0 nM): > 45.8 µM
- IC50 cell viability (ICRF193 200 nM): > 45.8 µM

Structure (SMILES): CN(C)CCN(Cc1ccsc1)c1ccccn1 [Thenyldiamine]
- IC50 cell viability (ICRF193 0 nM): > 45.8 µM
- IC50 cell viability (ICRF193 200 nM): > 45.8 µM

Structure (SMILES): Cn1cnc2c1c(=O)[nH]c(=O)n2C [Theobromine]
- IC50 cell viability (ICRF193 0 nM): > 45.8 µM
- IC50 cell viability (ICRF193 200 nM): > 45.8 µM

Structure (SMILES): Cn1c(=O)c2[nH]cnc2n(C)c1=O [Theophyllamine]
- IC50 cell viability (ICRF193 0 nM): > 45.8 µM
- IC50 cell viability (ICRF193 200 nM): > 45.8 µM

Structure (SMILES): c1ccc2[nH]c(-c3cscn3)nc2c1 [Thiabendazole]
- IC50 cell viability (ICRF193 0 nM): > 45.8 µM
- IC50 cell viability (ICRF193 200 nM): > 45.8 µM

Structure (SMILES): C/C(=C(\CCO)SS/C(CCO)=C(/C)N(C=O)Cc1cnc(C)nc1N)N(C=O)Cc1cnc(C)nc1N [Thiamine disulfide]
- IC50 cell viability (ICRF193 0 nM): > 45.8 µM
- IC50 cell viability (ICRF193 200 nM): > 45.8 µM

Structure (SMILES): Cc1ncc(C[n+]2csc(CCO)c2C)c(N)n1 [Thiamine hydrochloride]
- IC50 cell viability (ICRF193 0 nM): > 45.8 µM
- IC50 cell viability (ICRF193 200 nM): > 45.8 µM

Structure (SMILES): Cc1ncc(C[n+]2csc(CCOP(=O)(O)OP(=O)(O)O)c2C)c(N)n1 [Thiamine pyrophosphate]
- IC50 cell viability (ICRF193 0 nM): > 45.8 µM
- IC50 cell viability (ICRF193 200 nM): > 45.8 µM

Structure (SMILES): CS(=O)(=O)c1ccc([C@H](O)[C@@H](COC(=O)CN)NC(=O)C(Cl)Cl)cc1 [Thiamphenicol glycinate]
- IC50 cell viability (ICRF193 0 nM): > 45.8 µM
- IC50 cell viability (ICRF193 200 nM): > 45.8 µM
